# From US7172749B2, “Radiolabeled irreversible inhibitors of epidermal growth factor receptor tyrosine kinase and their use in radioimaging and radiotherapy” (priority 2001, dated 2007)
# Read-outs that look alike come from different tables or passages of the source.
# Assays:
# [1] = molecular target: EGFR-TK autophosphorylation in intact A431 cells (Homo sapiens, UniProt P00533); assay: cell-based
# Experimental: Autophosphorylation Inhibition Experiments in Intact A431 Cells:
# A431 cells (10^6) were seeded in 6-well plates and grown to 60–80% confluence in DMEM (high glucose) containing 10% fetal calf serum (FCS) and antibiotics at 37° C. The cells were then exposed to serum-free medium, at 37° C., for 18 hours.
# Irreversibility assay: Variable concentrations of the inhibitor, ranging from 0.05 nM to 50 nM, were added to A431 cells for 2 hours incubation. The inhibitor was diluted in vehicle/DMSO and the final concentration of DMSO was 0.05% in each well). The medium was replaced thereafter with an inhibitor/FCS-free medium and the cells were left for either 2 or 8 hours, at 37° C. During the 8 hours period, the medium was changed three more times. After the post-incubation period, the cells were stimulated with EGF (20 ng/ml) for 5 minutes and then washed with PBS. Whole-cell lysates were obtained by scraping the cells into the well with 0.4 ml of Leammli buffer (10% glycerol, 3% sodium dodecyl sulfate, 5% b-mercaptoethanol, 50 mM Tris pH 6.8) that contained 0.001% bromophenol blue, and boiling for 5 minutes.
# Western blots: Identical protein amounts from each lysate sample were loaded onto polyacrylamide gel (6% or 10%), separated by electrophoresis (Hoefer Pharmacia Diotech Inc., San Francisco, USA) and transferred to nitrocellulose membrane (power supply: EPS 500/400, Amersham Pharmacia Biotech; nitrocellulose extra blotting membranes: Sartorius A G, Goettingen, Germany). A standard high molecular weight solution was loaded as a reference. For visualization of molecular weight bands, the membrane was immersed in Ponceau reagent (0.05% Ponceau, 5% acetic acid) for a few minutes, and then washed twice with TTN (10 mM Tris pH 7.4, 0.2% TWEEN 20, 170 mM NaCl) and once with water. The membrane was blocked overnight in TTN containing 5% milk (1% fat) (blocking TTN) and incubated for 90 minutes with PY20 antiphosphotyrosine antibody (Santa Cruz Biotechnology Inc., Santa Cruz, USA) diluted 1:2,000 in blocking TTN. The membrane was then washed with TTN (3×5 minutes), incubated for 90 minutes with a horseradish peroxidase-conjugated secondary antibody (Goat anti-mouse IgG H+L, Jackson ImResearch Laboratories, Inc, diluted 1:10,000 in blocking TTN), and finally washed again with TTN (3×5 minutes). The membrane was incubated in a luminol-based solution (1 minute, 0.1 M Tris pH 8.5, 250 μM luminol, 400 μM p-cumaric acid, 0.033% H2O2) and visualized using chemiluminescent detection.
# Quantification of the EGFR-P (protein) bands density obtained was performed using Adobe Photoshop 5.0ME and NIH image 1.16/ppc programs.
# [2] = molecular target: EGFR autophosphorylation in intact A431 cells (Homo sapiens, UniProt P00533); assay: EGFR autophosphorylation inhibition rate measurements in intact A431 cells; type: cell-based; conditions: 30 nM inhibitor
# Chain of EGFR autophosphorylation in intact A431 cells (P00533 25-1210): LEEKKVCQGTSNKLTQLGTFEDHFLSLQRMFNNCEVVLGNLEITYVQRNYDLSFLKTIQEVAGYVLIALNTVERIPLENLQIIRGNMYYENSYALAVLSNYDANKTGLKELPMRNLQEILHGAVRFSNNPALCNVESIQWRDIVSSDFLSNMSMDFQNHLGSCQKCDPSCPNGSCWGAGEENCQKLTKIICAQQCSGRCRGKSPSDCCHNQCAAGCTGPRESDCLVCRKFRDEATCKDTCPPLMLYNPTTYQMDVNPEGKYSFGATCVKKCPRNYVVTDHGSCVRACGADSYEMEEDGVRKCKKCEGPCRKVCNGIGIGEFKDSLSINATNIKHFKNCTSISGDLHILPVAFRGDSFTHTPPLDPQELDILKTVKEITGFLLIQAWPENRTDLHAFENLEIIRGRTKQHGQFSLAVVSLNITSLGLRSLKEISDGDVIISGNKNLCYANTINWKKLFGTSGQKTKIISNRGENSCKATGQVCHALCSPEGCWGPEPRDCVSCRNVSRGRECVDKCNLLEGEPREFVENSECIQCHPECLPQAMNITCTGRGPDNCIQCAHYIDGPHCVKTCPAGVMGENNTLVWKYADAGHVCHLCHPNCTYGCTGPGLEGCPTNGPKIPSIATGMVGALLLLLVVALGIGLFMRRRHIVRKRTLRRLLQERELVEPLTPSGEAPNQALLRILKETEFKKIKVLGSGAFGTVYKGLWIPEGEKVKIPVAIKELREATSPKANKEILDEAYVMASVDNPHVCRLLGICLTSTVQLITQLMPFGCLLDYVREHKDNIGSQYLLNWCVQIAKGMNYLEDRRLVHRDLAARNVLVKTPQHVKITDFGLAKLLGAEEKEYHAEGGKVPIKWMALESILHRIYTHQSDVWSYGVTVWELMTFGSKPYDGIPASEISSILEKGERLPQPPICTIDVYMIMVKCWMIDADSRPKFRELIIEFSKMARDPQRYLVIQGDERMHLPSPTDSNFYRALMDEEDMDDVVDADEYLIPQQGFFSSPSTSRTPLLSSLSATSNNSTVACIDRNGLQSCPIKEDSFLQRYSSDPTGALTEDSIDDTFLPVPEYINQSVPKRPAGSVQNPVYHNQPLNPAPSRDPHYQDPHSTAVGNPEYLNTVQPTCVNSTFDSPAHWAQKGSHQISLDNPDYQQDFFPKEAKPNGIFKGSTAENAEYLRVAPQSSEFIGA
# Experimental: A431 cells (10^6) were seeded in 6-well plates and grown to 60–80% confluence in DMEM (high glucose) containing 10% fetal calf serum (FCS) and antibiotics at 37° C.
# After the incubation, the medium was replaced with an inhibitor/FCS-free medium, the cells were kept at 37° C. for either 1 or 8 hours, stimulated thereafter with EGF and lysated as described hereinabove. The protein determination assay was then performed once with n=1 for each time point of the 1 hour post-incubation set of cells left, and with n=2 (for each time point) for the 8 hours post-incubation set of cells.
# The strips were then washed (3×15 minutes) with fading solution (20% MeOH, 7% acetic acid) and dried.
# For visualization of molecular weight bands, the membrane was immersed in Ponceau reagent (0.05% Ponceau, 5% acetic acid) for a few minutes, and then washed twice with TTN (10 mM Tris pH 7.4, 0.2% TWEEN 20, 170 mM NaCl) and once with water. The membrane was blocked overnight in TTN containing 5% milk (1% fat) (blocking TTN) and incubated for 90 minutes with PY20 antiphosphotyrosine antibody (Santa Cruz Biotechnology Inc., Santa Cruz, USA) diluted 1:2,000 in blocking TTN.
# EGFR-TK = EGFR-TK (Homo sapiens, UniProt P00533); assay: biochemical; conditions: 3 μM ATP
# Chain of EGFR-TK (P00533 25-1210): as above
# Experimental: All the following incubations were performed at room temperature and with constant shaking. […] The final volume for each well was 150 μl.
# After removing the unbound m108, the plate was washed and PBS containing 5% milk (1% fat) was added for the blocking (25 minutes).
# One aliquot of A431 cell lysate was thawed and added to the plate.
# After 25 minutes, and without washing the plate, ATP/MnCl2 solution was added in each well. The final concentration was 3 μM ATP/5 mM MnCl2. In this step the temperature was kept at 26° C. and the plate was under constant shaking. The incubation with ATP/MnCl2 was for 5 minutes.
# Then, to stop the phosphorylation reaction, EDTA was added (pH 8, final concentration in each well 20 mM) and after 1 minute all the plate was washed.
# Afterward, polyclonal anti-phosphotyrosine serum (Sugen, Inc.) was added (dilution of antibody in TBST containing 5% milk). The incubation was for 45 minutes.
# A431 tumor [3] = assay: Positron Emission Tomography studies in tumor bearing nude rats; type: in vivo, rat; conditions: for bladder excretion (PET coronal views): FIG. 12
# Experimental: (§1) WAG rnu/rnu male rats (300–400 grams) were injected s.c. in the left or right hind limb, or in the neck, with A431 cells (1×10^7 in 200 μl sterile PBS). Tumor growth was monitored every 2–3 days by calipers. One to two weeks after inoculation, the rats were ready to be used in the following in-vivo biodistribution, metabolic and PET studies. Tumor mass ranging between 2 and 3 grams were used in these experiments.
# Positron Emission Tomography studies: Preliminary dynamic PET scans were performed on a Positron Corporation HZL/R scanner (intrinsic spatial resolution: in-plane 5.8 mm, axial 6.3 mm). Rats were anaesthetized with pentothal (85 mg/Kg) and placed supine on a flat polystyrene foam support with feet taped to the support, so as to minimize movements. […] The PET data were normalized for variations in detector sensitivity, and corrected for wobble, randoms, scatter and deadtime. Attenuation correction was applied using the measured transmission scan data. PET images of the Posicam system (Positron Corporation) were reconstructed by filtered back-projection using a Butterworth filter (cut-off 0.2 cycles/mm, order 10). […] These experiments were conducted with the same rats, two days after the first set of experiments.
# A431 tumor [4] = assay: Biodistribution in tumor (A431) bearing rats; type: in vivo, rat; conditions: for tumor/blood ratios: data not shown; for course of tumor uptake with time / tumor uptake: tumor (A431) bearing rats
# Experimental: as §1, with “experiments. Biodistribution: […] Animals were sacrificed at specific time points (between 0 and 1 hour) by means of CO2 asphyxiation. Blood and certain organs and tissues including tumors were collected or excised, counted in a gamma-counter and weighed. % ID/organ, % ID/gram of tissue and tissue/blood uptake ratios were calculated.” for “experiments.”
# [5] = Biological stability (metabolism) in blood, liver and tumor of rats; type: in vivo, rat
# Experimental: as §1, with “experiments. Biological Stability: […] In general, control rats were injected with the radiolabeled compounds and sacrificed at several time points. […] Ether was then added and the samples were counted in a gamma-counter. Blood, homogenized liver and tumor samples were extracted and the extracted fractions were measured for activity in a gamma-counter, spotted onto TLC, and the radioactivity was detected with phosphor imaging plates.” for “experiments.”
# A431 cells = assay: Specific binding measurements in intact A431 cells; design: species or system human
# Experimental: Specific Binding Measurements in Intact A431 Cells: […] After incubation, cells were harvested with a cell harvester (Brandel […], model […], Brandel, Gaithersburg, Md., USA) and were counted in a gamma-counter (1480 WizardTM 3''). The specific binding of the radiolabeled inhibitor was calculated by subtracting the radioactivity level of cells pre-incubated with the non-labeled inhibitor from the radioactivity level of cells pre-incubated with the vehicle only.
# Chain of EGFR-TK autophosphorylation in intact A431 cells (P00533 25-1210): as above
smiles,measurement,setting,value
"C=CC(=O)Nc1ccc2ncnc(Nc3cc(Cl)c(Cl)cc3F)c2c1 [Compound 3, N-{4-[(3,4-dichloro-6-fluorophenyl)amino]quinazoline-6-yl}acrylamide]",inhibition at 0.0005 µM,"[1]; A-431, read-out: inhibition of EGFR autophosphorylation, 0.5 nM inhibitor, 2 h incubation, 2 hours in inhibitor/FCS-free media",~35%
same,inhibition at 0.005 µM,"[1]; A-431, read-out: inhibition of EGFR autophosphorylation, 5 nM inhibitor, 2 h incubation, 2 hours in inhibitor/FCS-free media",40%
same,inhibition at 0.05 µM,"[1]; A-431, read-out: inhibition of EGFR autophosphorylation, 50 nM inhibitor, 2 h incubation, 2 hours in inhibitor/FCS-free media",~100%
same,inhibition at 0.05 µM,"[1]; A-431, read-out: inhibition of EGFR autophosphorylation, 50 nM inhibitor, 2 h incubation, 8 hours post-incubation",~97%
same,inhibition of EGFR autophosphorylation,"[2]; 9 minutes incubation time, 1 hour post-incubation (FIG. 4), compared with the 80% inhibition of FIG. 3",same effect
same,inhibition at 0.03 µM,"[2]; A-431, 10 minutes incubation time, 8 hours post-incubation (FIG. 3)",80%
same,IC50,"EGFR-TK; IC50app of an exemplary dose-response autophosphorylation inhibition curve, single exemplary curve (FIG. 1 / FIG. 5), r2 0.995",0.051 nM
same,IC50,"EGFR-TK; apparent IC50 average (IC50app), EGFR-TK autophosphorylation, average of 4 independent dose-response curves (n=4), spread ±0.016",0.042 nM
"OC[C@H]1O[C@@H](O)[C@H]([18F])[C@@H](O)[C@@H]1O [FDG, reference compound]",bladder excretion (PET coronal views),A431 tumor [3],excreted in the bladder in great quantities
"C=CC(=O)Nc1ccc2ncnc(Nc3cc(Cl)c(Cl)cc3F)c2c1 [carbon-11 labeled Compound 3, carbon-11 labeled N-{4-[(3,4-dichloro-6-fluorophenyl)amino]quinazoline-6-yl}acrylamide]",tumor/blood ratios,A431 tumor [4]; 15 minutes post administration,0.09 % ID/gram
same,tumor/blood ratios,A431 tumor [4]; 30 minutes post administration,0.05 % ID/gram
same,course of tumor uptake with time,A431 tumor [4],decreased with time
same,tracer remaining intact in blood,[5]; 15 minutes post injection,20%
same,metabolites in liver and blood (TLC),"[5]; 30 minutes post injection, tumor bearing rats",detected
same,tracer remaining intact in blood,[5]; 45 minutes post injection,no tracer was remained
"CN(C)CC=CC(=O)Nc1ccc2ncnc(Nc3cc(Cl)c(Cl)cc3F)c2c1 [carbon-11 labeled Compound 4, carbon-11 labeled N-{4-[(3,4-dichloro-6-fluorophenyl)amino]quinazoline-6-yl}-4-(dimethylamino)-2-butenamide]",tumor uptake,A431 tumor [4]; 15 minutes post-administration,0.25 % ID/gram
same,tumor uptake,A431 tumor [4]; 30 minutes post-administration,0.24 % ID/gram
same,course of tumor uptake with time,A431 tumor [4],remained constant
same,increase of specific binding as compared to carbon-11 labeled Compound 3,A431 cells; A431 cells,10%
same,specific binding to A431 cells,"A431 cells; carbon-11 labeled tracer, non-specific binding from cells pre-incubated with non-labeled inhibitor",78%
same,PET visualization of the tumor,"A431 tumor [3]; 250 μCi via jugular vein, dynamic scan",visualized throughout a 1-hour scan
same,bladder excretion (PET coronal views),A431 tumor [3],slower and minimal bladder excretion
same,specific binding of radiolabeled inhibitor in tumor,"A431 tumor [3]; PET, alone versus blocked with non-labeled compound",50%
same,decrease of liver activity uptake,A431 tumor [3]; during one hour scanning time,25%
same,course of activity uptake in the tumor,A431 tumor [3]; during the first one hour scan,remained constant
same,tumor uptake of tracer after pre-injection of non-labeled Compound 4,"A431 tumor [3]; non-labeled Compound 4 given 10 minutes before tracer, same rats 2 days later",blocked
same,total activity uptake in tumor when administered alone as compared with uptake after pre-injecting non-labeled compound,A431 tumor [3]; time activity curves of the tumor region (FIG. 10),doubled
same,course of intact tracer in blood with time,[5]; 15 to 45 minutes post injection,no substantial reduction with time
same,tracer remaining intact in blood,[5]; 15 minutes post injection,60%
same,metabolites (TLC),"[5]; 60 minutes post injection, tumor bearing rats",no metabolites
